From PMC4327817 (ACS chemical biology, 2014)
Like-named read-outs stand apart in the source and are kept apart here.

Tests used:
CBP = CBP (Homo sapiens, UniProt Q92793); assay: C646 titration of CBP acetylation of H3/H4 under kcat conditions; assay type: biochemical
BxPC3 cells = assay: Histone acetylation in BxPC3 cells after drug treatment; assay type: cell-based, human; settings: for EC50: read-out: apparent EC50 for activation; for Mean fold-change in acetylation: TSA 0.5 μM

CBP, sequence (Q92793 whole entry): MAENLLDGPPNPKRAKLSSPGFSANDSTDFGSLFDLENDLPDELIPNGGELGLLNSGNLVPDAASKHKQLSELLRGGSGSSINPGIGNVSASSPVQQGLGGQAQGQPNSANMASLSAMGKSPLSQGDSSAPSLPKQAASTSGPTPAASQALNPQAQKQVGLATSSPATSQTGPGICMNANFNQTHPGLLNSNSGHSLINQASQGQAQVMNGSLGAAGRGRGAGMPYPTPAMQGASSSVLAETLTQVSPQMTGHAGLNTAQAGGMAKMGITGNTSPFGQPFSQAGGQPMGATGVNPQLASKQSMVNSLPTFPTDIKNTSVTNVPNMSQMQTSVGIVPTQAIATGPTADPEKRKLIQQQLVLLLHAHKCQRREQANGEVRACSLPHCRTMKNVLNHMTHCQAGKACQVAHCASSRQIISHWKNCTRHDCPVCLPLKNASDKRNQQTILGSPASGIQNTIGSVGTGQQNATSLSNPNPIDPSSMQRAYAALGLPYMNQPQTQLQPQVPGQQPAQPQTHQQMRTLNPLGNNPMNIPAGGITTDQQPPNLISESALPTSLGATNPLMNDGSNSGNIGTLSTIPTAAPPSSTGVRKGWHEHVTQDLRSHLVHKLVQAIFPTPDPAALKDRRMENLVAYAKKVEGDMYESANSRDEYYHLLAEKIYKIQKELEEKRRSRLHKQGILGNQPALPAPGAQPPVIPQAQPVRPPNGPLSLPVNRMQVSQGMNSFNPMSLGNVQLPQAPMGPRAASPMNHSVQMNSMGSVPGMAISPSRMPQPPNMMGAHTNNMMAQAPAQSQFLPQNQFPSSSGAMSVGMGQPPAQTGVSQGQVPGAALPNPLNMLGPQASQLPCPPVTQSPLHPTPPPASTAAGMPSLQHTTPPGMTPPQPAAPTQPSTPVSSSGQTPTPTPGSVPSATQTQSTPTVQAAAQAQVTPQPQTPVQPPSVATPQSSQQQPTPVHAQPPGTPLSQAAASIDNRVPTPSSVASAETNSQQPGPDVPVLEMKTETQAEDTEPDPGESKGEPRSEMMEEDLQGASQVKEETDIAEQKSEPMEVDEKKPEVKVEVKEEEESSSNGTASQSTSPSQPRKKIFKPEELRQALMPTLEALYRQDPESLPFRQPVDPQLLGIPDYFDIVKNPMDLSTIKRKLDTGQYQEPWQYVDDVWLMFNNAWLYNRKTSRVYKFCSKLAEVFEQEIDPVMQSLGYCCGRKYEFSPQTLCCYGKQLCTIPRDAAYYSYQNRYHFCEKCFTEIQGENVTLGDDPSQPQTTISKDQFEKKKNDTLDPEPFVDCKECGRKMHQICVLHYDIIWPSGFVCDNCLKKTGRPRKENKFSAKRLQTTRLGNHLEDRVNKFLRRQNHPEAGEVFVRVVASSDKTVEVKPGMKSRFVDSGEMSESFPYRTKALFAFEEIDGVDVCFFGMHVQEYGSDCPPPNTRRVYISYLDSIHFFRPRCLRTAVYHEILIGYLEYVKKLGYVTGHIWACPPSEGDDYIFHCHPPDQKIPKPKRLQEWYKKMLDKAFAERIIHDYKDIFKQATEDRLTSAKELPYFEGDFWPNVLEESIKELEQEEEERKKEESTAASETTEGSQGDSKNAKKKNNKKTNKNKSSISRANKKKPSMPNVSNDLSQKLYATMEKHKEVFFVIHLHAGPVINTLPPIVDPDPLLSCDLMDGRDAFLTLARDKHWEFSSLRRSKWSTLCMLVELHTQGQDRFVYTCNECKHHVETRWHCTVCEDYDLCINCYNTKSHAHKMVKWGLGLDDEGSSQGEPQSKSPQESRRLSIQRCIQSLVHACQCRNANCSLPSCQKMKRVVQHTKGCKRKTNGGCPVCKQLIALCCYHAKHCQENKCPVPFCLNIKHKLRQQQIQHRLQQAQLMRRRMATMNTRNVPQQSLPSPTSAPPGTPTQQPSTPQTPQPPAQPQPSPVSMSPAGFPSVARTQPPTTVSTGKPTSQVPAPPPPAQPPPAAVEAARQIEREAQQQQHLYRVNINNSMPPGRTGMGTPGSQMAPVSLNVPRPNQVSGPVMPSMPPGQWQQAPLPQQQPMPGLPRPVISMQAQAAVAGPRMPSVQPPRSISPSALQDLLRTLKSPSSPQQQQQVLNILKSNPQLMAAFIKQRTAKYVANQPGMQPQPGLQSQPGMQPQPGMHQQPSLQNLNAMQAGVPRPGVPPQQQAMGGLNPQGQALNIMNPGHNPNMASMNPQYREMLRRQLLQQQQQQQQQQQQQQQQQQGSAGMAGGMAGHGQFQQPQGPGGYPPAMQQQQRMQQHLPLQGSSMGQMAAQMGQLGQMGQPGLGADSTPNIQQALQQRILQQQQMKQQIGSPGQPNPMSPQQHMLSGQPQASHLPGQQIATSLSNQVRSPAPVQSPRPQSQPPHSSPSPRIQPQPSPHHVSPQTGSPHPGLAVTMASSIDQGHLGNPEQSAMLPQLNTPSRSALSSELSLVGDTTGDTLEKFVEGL

With `CC1=NN(c2ccc(C(=O)O)cc2)C(=O)/C1=C\c1ccc(-c2cc(C)c(C)cc2[N+](=O)[O-])o1` [C646] the “C646 concentration range inhibiting CBP” value (CBP; compared with p300) was “within the nanomolar range”, the “effect of C646 on CBP acetylation activity” value (CBP; kcat conditions, other sites mainly displayed an inhibitory effect) was “biphasic dependence for H3K18” and the “stimulation of acetylation in parental BxPC3 cells” value (BxPC3 cells; parental cells, compared with p300-depleted cells) was ≤ 2.5 fold. For the same molecule, the EC50 (BxPC3 cells; site H3K18, 4 hours) was ~400 nM, the EC50 (BxPC3 cells; site H3K23, 4 hours) was ~400 nM and the IC50 (BxPC3 cells; read-out: apparent IC50 of inhibition, site H3K18, 4 hours) was ~6800 nM.
In the case of `CC(/C=C/C(=O)NO)=C\[C@@H](C)C(=O)c1ccc(N(C)C)cc1` [TSA], the “Mean fold-change in acetylation” value (BxPC3 cells; site H3K9, 4 hours, after 16 hours of serum starvation) is reported as 3.02 fold, the “Mean fold-change in acetylation” value (BxPC3 cells; site H3K9, 4 hours, no starvation) is reported as 68.56 fold and the “increase of acetylation relative to C646” value (BxPC3 cells; site H3K9, TSA versus C646) is reported as 42 fold. The “Mean fold-change in acetylation” value (BxPC3 cells; site H3K14, 4 hours, after 16 hours of serum starvation) was 1.65 fold, the “Mean fold-change in acetylation” value (BxPC3 cells; site H3K14, 4 hours, no starvation) was 2.412 fold and the “Mean fold-change in acetylation” value (BxPC3 cells; site H3K18, 4 hours, after 16 hours of serum starvation) was 1.94 fold. The “Mean fold-change in acetylation” value (BxPC3 cells; site H3K23, 4 hours, after 16 hours of serum starvation) was 1.78 fold and the “Mean fold-change in acetylation” value (BxPC3 cells; site H3K23, 4 hours, no starvation) was 2.83 fold.
With `CC(C)(CCCCCCCCCCC(C)(C)CC(=O)O)CC(=O)O` [MEDICA 16, beta, beta’-tetramethylhexadecanedioic acid] the “effect of MEDICA 16 pretreatment on the acetylation response to C646” value (BxPC3 cells; 5 μM MEDICA 16 for 24 hours prior to […] C646) was “muted stimulatory response to C646”.
